The source of these data is PubChem BioAssay (NCI).

Test systems include HL-60(TB) leukemia; SK-OV-3 ovarian; ACHN renal; SF-268 CNS; HCT-15 colon; KM12 colon; OVCAR-4 ovarian; PC-3 prostate; HOP-62 NSCLC; NCI-H226 lung.
Holding throughout (assay): inhibition of tumour cell growth, NCI panel, 48 h

Each structure is given as a SMILES string.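 Tested at 5 concentrations; 48 h exposure; 96-well plates; endpoints linearly interpolated, else capped at highest concentration. GI50 = concentration required for 50% inhibition of growth. At the TGI there is no net growth.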

Turning to `CC1(C)N=C(N)N=C(N)N1c1ccc(CCC(=O)Nc2ccc(S(=O)(=O)F)cc2)c(Cl)c1`, the GI50 in the experiment with HL-60(TB) leukemia was 0.142 µM; in the experiment on SK-OV-3 ovarian, 8.56 µM; with ACHN renal, 5.37 µM; in the experiment on SF-268 CNS it was 0.507 µM; with HCT-15 colon it was 2.92 µM; with KM12 colon it was 0.243 µM. Besides, the GI50 was 5.51 µM in the experiment with OVCAR-4 ovarian, 0.0926 µM with PC-3 prostate, 1.86 µM in the experiment on HOP-62 NSCLC and 14.4 µM in the experiment on NCI-H226 lung. For the same compound, the TGI with HL-60(TB) leukemia is > 100 µM; with SK-OV-3 ovarian, > 100 µM; in the experiment with ACHN renal, > 100 µM; in the experiment on SF-268 CNS, > 100 µM; in the experiment on HCT-15 colon, > 100 µM; in the experiment on KM12 colon, 28.3 µM. Also, the TGI in the experiment with OVCAR-4 ovarian was > 100 µM; in the experiment with PC-3 prostate, 49.7 µM; in the experiment on HOP-62 NSCLC, > 100 µM; with NCI-H226 lung, > 100 µM.
On to `CC(C)C(O)(C(C)C)C(C)C`, for which the TGI with HL-60(TB) leukemia, in the experiment on SK-OV-3 ovarian, in the experiment on ACHN renal, with SF-268 CNS, in the experiment on HCT-15 colon and with KM12 colon was > 100 µM throughout. For the same compound, the TGI with OVCAR-4 ovarian, with PC-3 prostate, with HOP-62 NSCLC and with NCI-H226 lung was > 100 µM in each case.
In the case of `O=C(/C=C/c1ccccc1)Nc1ncc(Cc2ccccc2Cl)s1`, the GI50 is 0.285 µM with HL-60(TB) leukemia; 0.79 µM in the experiment with SK-OV-3 ovarian; 0.612 µM in the experiment on ACHN renal; 1.8 µM in the experiment with SF-268 CNS; 0.237 µM in the experiment with HCT-15 colon; 0.288 µM in the experiment on KM12 colon. For the same compound, the GI50 is > 100 µM in the experiment with OVCAR-4 ovarian, 0.409 µM with PC-3 prostate, 0.505 µM in the experiment on HOP-62 NSCLC and 0.35 µM with NCI-H226 lung. The TGI with HL-60(TB) leukemia is 0.872 µM; with SK-OV-3 ovarian it was > 100 µM; with ACHN renal it was > 100 µM; in the experiment with SF-268 CNS, > 100 µM; in the experiment on HCT-15 colon it was > 100 µM; with KM12 colon it was > 100 µM. The TGI in the experiment on OVCAR-4 ovarian, in the experiment with PC-3 prostate, with HOP-62 NSCLC and with NCI-H226 lung was > 100 µM each time.
For the compound `CC/C=C\C[C@H]1CC=C2C(=O)C=C[C@@H]2CC=CCCCC(=O)O[C@@H](CCCCC)CC=C2C(=O)C=C[C@@H]2CC=CCCCC(=O)O[C@@H](CCCCC)CC=C2C(=O)C=C[C@@H]2CC=CCCCC(=O)O[C@@H](CCCCC)CC=C2C(=O)C=C[C@@H]2CC=CCCCC(=O)O1`, the GI50 in the experiment with HL-60(TB) leukemia is 2.09 µM; with SK-OV-3 ovarian, 7.64 µM; in the experiment on ACHN renal, 2.62 µM; in the experiment with SF-268 CNS it was 2.62 µM; with HCT-15 colon, 2.84 µM; in the experiment with KM12 colon, 2.51 µM. In addition, the GI50 in the experiment on OVCAR-4 ovarian was 2.2 µM; in the experiment with PC-3 prostate, 2.38 µM; with HOP-62 NSCLC it was 1.71 µM; in the experiment on NCI-H226 lung, 2.48 µM. For the same compound, the TGI in the experiment on HL-60(TB) leukemia was 6.26 µM; in the experiment with SK-OV-3 ovarian, > 7.9 µM; in the experiment on ACHN renal, > 7.9 µM; in the experiment with SF-268 CNS it was > 7.9 µM; in the experiment with HCT-15 colon it was > 7.9 µM; in the experiment with KM12 colon, > 7.9 µM. Moreover, the TGI with OVCAR-4 ovarian was > 7.9 µM; with PC-3 prostate, > 7.9 µM; with HOP-62 NSCLC, 3.86 µM; in the experiment with NCI-H226 lung, > 7.9 µM.
